Laboratory results from PMC11339918, “Extracellular Domain of IL-10 Receptor Chain-2 (IL-10R2) and Its Arginine-Containing Peptides Are Susceptible Substrates for Human Prostate Kallikrein-2 (KLK2)” (Biochemistry, 2024).

Tested on: BMDM cells
Experiment: BMDM activation with LPS/IFN-γ: NO, TNF-α and IL-12 p40 in supernatant
Type: cell-based, C57Bl/6 mice
Details: 72 h, Griess, ELISA; for IL-10 inhibition of NO, TNF-α and IL-12 p40 generation in pretreated BMDM: pretreatment 7.5 μg/mL for 2 h, then LPS 200 ng/mL / IFN-γ 100 U/mL ± IL-10 10 ng/mL
Protocol: BMDM were obtained from C57Bl/6 mice and used as previously reported.[17]
For BMDM activation assays in vitro, cells were plated at a density of 10^5 cells/mL in 96-well plates at 37 °C in the absence and presence of KLK2 or KLK3 (7.5 μg/mL) for 2 h. The cells were then washed with PBS and treated with LPS (200 ng/mL)/IFN-γ (100 U/mL) stimuli in the presence or absence of recombinant IL-10 (10 ng/mL). The activation response of BMDM cells was evaluated after 72 h by quantification of nitric oxide (NO), TNF-α, and IL-12 p40 in the supernatant of BMDM cell cultures. NO was quantified using the Griess assay,[19] and the cytokines TNF-α and IL-12 p40 were quantified using sandwich enzyme-linked immunosorbent assay (ELISA) kits (B.D. Biosciences) following the manufacturer’s instructions.
Figure 3 KLK2 converts BMDM cells to a pro-inflammatory status characterized by maintaining NO, TNF-α, and IL-12p40 levels, even in the presence of recombinant IL-10. BMDM cells from C57Bl/6 mice were incubated in a 96-well plate (1 × 10^5 cells) with KLK2 (7.5 μg/mL) or KLK3 (7.5 μg/mL) for 2 h. After this, cells were washed and incubated with or without lipopolysaccharide (LPS) (200 ng/mL), IFN-γ (IFN), and recombinant IL-10 (IL10). (A) NO quantified in the culture supernatant by the Griess method. (B) TNF-α and (C) IL-12 p40 cytokines were quantified by ELISA in culture supernatants. MΦ = control macrophages. * p-value <0.001, analyzed by ANOVA with Tukey’s multiple comparisons.

Molecule	IL-10 inhibition of NO, TNF-α and IL-12 p40 generation in pretreated BMDM	generation of NO, TNF-α and IL-12 p40 in LPS/IFN-γ activated BMDM (IL-10 10 ng/mL, LPS 200 ng/mL / IFN-γ 100 U/mL)
KLK2: human prostate kallikrein-2, recombinant, from a baculovirus-insect cell line system	these IL-10 inhibitory effects were not observed	
KLK3: human kallikrein-related peptidase 3 (PSA—prostatic-specific antigen)	did not show these effects	
recombinant IL-10: recombinant IL-10 (10 ng/mL) used in BMDM activation assay (protein, UniProt P18893 19-178, looked up) Interleukin-10: SRGQYSREDNNCTHFPVGQSHMLLELRTAFSQVKTFFQTKDQLDNILLTDSLMQDFKGYLGCQALSEMIQFYLVEVMPQAEKHGPEIKEHLNSLGEKLKTLRMRLRRCHRFLPCENKSKAVEQVKSDFNKLQDQGVYKAMNEFDIFINCIEAYMMIKMKS		reduced the generation of NO, TNF-α, and IL-12 p40
